What is called Km is the concentration of substrate that gives half-maximal velocity. Usually Ki stands for a measure of affinity in units of concentration, obtained from inhibition or displacement. The low end stands for higher affinity, the high end for lower affinity.

The first assay is described as follows: (§1) Compound was tested for ribonucleotide reductase (RR) activity by inhibition of dGTP-activated ADP reduction.
Take `Nc1ncnc2c1ncn2[C@@H]1O[C@H](COP(=O)(O)OP(=O)(O)O)[C@@H](O)[C@H]1O`: the Michaelis constant (Km) came to 34 µM.

Another assay can be described thus: as §1.
Consider `Nc1ncnc2c1nc(Br)n2[C@@H]1O[C@H](COP(=O)(O)OP(=O)(O)O)[C@@H](O)[C@H]1O`, for which the inhibition constant (Ki) was determined as 77 µM.

In turn, `C=CS(=O)(=O)CCCCCCS(=O)(=O)CCSc1nc2c(N)ncnc2n1C1O[C@@H](COP(=O)(O)OP(=O)(O)O)[C@H](O)[C@@H]1O` (stereo partly drawn) displayed an inhibition constant Ki of 22 µM.

`Nc1nc(O)c2nc(S)n(C3CC(O)C(COP(=O)(O)OP(=O)(O)OP(=O)(O)O)O3)c2n1` (stereo not drawn): the inhibition constant (Ki) was found to be 13 µM.

On to `Nc1ncnc2c1nc(SCCS(=O)(=O)CCCCCCS(=O)(=O)CCSc1nc3c(N)ncnc3n1C1O[C@H](COP(=O)(O)OP(=O)(O)O)[C@@H](O)[C@H]1O)n2C1O[C@H](COP(=O)(O)OP(=O)(O)O)[C@H](O)[C@@H]1O` (stereo partly drawn), for which the affinity, expressed as Ki, was 19 µM.

With `Nc1nc(O)c2nc(Br)n(C3CC(O)C(COP(=O)(O)OP(=O)(O)OP(=O)(O)O)O3)c2n1` (stereo not drawn), the affinity, expressed as Ki, was 56 µM.

Regarding `Nc1ncnc2c1nc(S)n2C1O[C@@H](COP(=O)(O)OP(=O)(O)O)[C@H](O)[C@@H]1O` (stereo partly drawn), the inhibition constant (Ki) turned out to be 158 µM.

The compound `C=CS(=O)(=O)CCCCCCS(=O)(=O)CCSc1nc2c(O)nc(N)nc2n1C1C[C@@H](O)[C@H](COP(=O)(O)OP(=O)(O)OP(=O)(O)O)O1` (stereo partly drawn) registered a Ki of 9 µM.

The record behind these values is ChEMBL document CHEMBL1132790, “Synthesis and biological activity of a bivalent nucleotide inhibitor of ribonucleotide reductase” (Bioorg Med Chem Lett, 2000).
